Molecular target: T1, PAR-1 receptor (Homo sapiens, UniProt P25116)
T1 construct: endogenous in cells; host or cells: HEK 293
T1 sequence (P25116 22-425): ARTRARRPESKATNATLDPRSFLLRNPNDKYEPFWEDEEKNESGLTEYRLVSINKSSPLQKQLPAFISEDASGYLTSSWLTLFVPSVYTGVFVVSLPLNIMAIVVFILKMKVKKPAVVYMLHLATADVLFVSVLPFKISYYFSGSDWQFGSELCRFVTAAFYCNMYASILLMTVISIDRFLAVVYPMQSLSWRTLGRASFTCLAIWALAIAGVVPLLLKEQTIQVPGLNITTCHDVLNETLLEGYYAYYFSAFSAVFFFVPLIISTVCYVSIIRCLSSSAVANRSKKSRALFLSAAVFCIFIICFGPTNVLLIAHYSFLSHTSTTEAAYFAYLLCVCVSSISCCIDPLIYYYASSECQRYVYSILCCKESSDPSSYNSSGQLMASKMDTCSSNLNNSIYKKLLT
Test: PAR-1 FLIPR Assay
Type: cell-based
Details: HEK 293 cells, FLIPR calcium-5 dye; inhibition of signal from PAR1 selective receptor-activating peptide at 80% activation concentration (1.4-2.0 uM); compound incubated 30 minutes at 25 degrees
Method: The following assay was used to determine the ability of the inventive compounds to inhibit the PAR-1 receptor.
HEK 293 Cells are grown in media containing DMEM, 10% FBS pen/strep/L-Glutamine and non-essential amino acids. The cells are plated in 384-well PDL coated plates at 12000 cells/well and incubated overnight at 37° C./5% CO2. Media is then removed from the cells, which are then incubated with buffer (Hank's containing HEPES and Chaps) containing FLIPR calcium-5 dye, made with buffer containing probenecid, for 60 minutes at 37° C. Varying concentrations of compound in a final concentration of 5% DMSO are then added to the cells and incubated at 25 degrees for 30 minutes. The plates are then added to a FLIPR Tetra cellular screening system and the device adds a concentration of a PAR1 selective receptor-activating peptide with the sequence Ala-parafluoroPhe-Arg-Cha-Cit-Tyr-NH2 (SEQ ID NO: 3) (prepared in water) at a concentration equal to the effective concentration that achieves 80% activation of signaling on the day of the experiment. The range is from 1.4-2.0 uM peptide. The FLIPR reads at an excitation wavelength of 480 nm and an emission wavelength of 535 nm, and performs 60 scans over a 1-2 min reading time. The data are analyzed by taking the peak signal over a portion of the range of the 60 scans and dividing this signal by the minimum signal for that same range. The data are expressed as percent inhibition of the maximum divided by the minimum signal achieved at 80% activation produced by the PAR1 activating peptide on the test day.

Row | Compound | IC50
1 | C[C@H]1NS(=O)(=O)[C@@H]2CC(F)(F)[C@@H](C)[C@H](/C=C/c3ccc(-c4cccnc4C#N)cn3)[C@@H]21 [Example 2, (3R,3aR,4S,5S,7aR)-6,6-difluoro-4-((E)-2-(2′-cyano-[3,3′-bipyridin]-6-yl)vinyl)-3,5-dimethyloctahydrobenzo[d]isothiazole 1,1-dioxide] | 55.8 nM
2 | C[C@H]1NS(=O)(=O)[C@@H]2CC(F)(F)[C@@H](C)[C@H](/C=C/c3ccc(-c4ccccc4C#N)cn3)[C@@H]21 [Example 3, (3R,3aR,4S,5S,7aR)-4-((E)-2-(5-(2-cyanophenyl)pyridin-2-yl)vinyl)-6,6-difluoro-3,5-dimethyloctahydrobenzo[d]isothiazole-1,1-dioxide] | 11.9 nM
3 | Cc1nc(/C=C/[C@@H]2[C@H]3[C@@H](CC(F)(F)[C@H]2C)S(=O)(=O)N[C@@H]3C)ccc1-c1ccccc1C#N [Example 6, (3R,3aR,4S,5S,7aR)-4-((E)-2-(5-(2-cyanophenyl)pyridin-2-yl)-6-methylvinyl)-6,6-difluoro-3,5-dimethyloctahydrobenzo[d]isothiazole-1,1-dioxide] | 66.7 nM
4 | CC[C@@H]1CC[C@@H]2[C@H]([C@H]1/C=C/c1ccc(-c3ccccc3C#N)cn1)[C@@H](C)NS2(=O)=O [Example 10, 2-(6-((E)-2-((3R,3aR,4R,5R,7aR)-5-ethyl-3-methyl-1,1-dioxidooctahydrobenzo[d]isothiazol-4-yl)vinyl)pyridin-3-yl)benzonitrile] | 0.97 nM
5 | C[C@H]1NS(=O)(=O)[C@]2(C)CC(F)(F)[C@@H](C)[C@H](/C=C/c3ccc(-c4cccc(F)c4)cn3)[C@H]12 [Example 15, (3R,3aR,4S,5S,7aR)-6,6-difluoro-4-((E)-2-(5-(3-fluorophenyl)pyridin-2-yl)vinyl)-3,5,7a-trimethyloctahydrobenzo[d]isothiazole 1,1-dioxide] | 55.1 nM
6 | C[C@H]1NS(=O)(=O)[C@]2(C)CC(F)(F)[C@@H](C)[C@H](/C=C/c3ccc(-c4ccccc4C#N)cn3)[C@H]12 [Example 16, (3R,3aR,4S,5S,7aR)-6,6-difluoro-4-((E)-2-(5-(2-cyanophenyl)pyridin-2-yl)vinyl)-3,5,7a-trimethyloctahydrobenzo[d]isothiazole 1,1-dioxide] | 11.8 nM
7 | COc1ncccc1-c1ccc(/C=C/[C@@H]2[C@@H]3[C@@H](C)N(C(=O)OC(C)(C)C)S(=O)(=O)[C@@]3(CC(N)=O)CC(F)(F)[C@H]2C)nc1 [Example 19, (3R,3aR,4S,5S,7aS)-tert-butyl 7a-(2-amino-2-oxoethyl)-6,6-difluoro-4-((E)-2-(2′-methoxy-[3,3′-bipyridin]-6-yl)vinyl)-3,5-dimethylhexahydrobenzo[d]isothiazole-2(3H)-carboxylate 1,1-dioxide] | 54 nM
8 | C[C@H]1NS(=O)(=O)[C@]2(CC(N)=O)CC(F)(F)[C@@H](C)[C@H](/C=C/c3ccc(-c4cccc(F)c4)cn3)[C@H]12 [Example 20, 2-((3R,3aR,4S,5S,7aR)-6,6-difluoro-4-((E)-2-(5-(3-fluorophenyl)pyridin-2-yl)vinyl)-3,5-dimethyl-1,1-dioxidooctahydrobenzo[d]isothiazol-7a-yl)acetamide] | 5 nM
9 | COc1ncccc1-c1ccc(/C=C/[C@@H]2[C@@H]3[C@@H](C)N(C(=O)OC(C)(C)C)S(=O)(=O)[C@]3(CC(N)=O)CC(F)(F)[C@H]2C)nc1 [Example 21] | 110 nM
10 | COc1ncccc1-c1ccc(/C=C/[C@@H]2[C@@H]3[C@@H](C)NS(=O)(=O)[C@@]3(CC(N)=O)CC(F)(F)[C@H]2C)nc1 [Example 22, 2-((3R,3aR,4S,5S,7aS)-6,6-difluoro-4-((E)-2-(2′-methoxy-[3,3′-bipyridin]-6-yl)vinyl)-3,5-dimethyl-1,1-dioxidooctahydrobenzo[d]isothiazol-7a-yl)acetamide] | 337 nM

More lines, in order of falling IC50, values ahead:

Row | IC50 | Compound
11 | 564 nM | CC(=O)N1[C@H](C)[C@H]2[C@@H](/C=C/c3ccc(-c4ccccc4C#N)cn3)[C@@H](C)C(F)(F)C[C@H]2S1(=O)=O [Example 9, 1-((3R,3aR,4S,5R,7aR)-6,6-difluoro-4-((E)-2-(5-(2-cyanophenyl)pyridin-2-yl)vinyl)-3,5-dimethyl-1,1-dioxidohexahydrobenzo[d]isothiazol-2(3H)-yl)ethanone]
12 | 483 nM | CC(=O)N1[C@H](C)[C@H]2[C@@H](/C=C/c3ccc(-c4ccccc4C#N)cn3)[C@H](C)C(F)(F)C[C@H]2S1(=O)=O [Example 4, 1-((3R,3aR,4S,5S,7aR)-6,6-difluoro-4-((E)-2-(5-(2-cyanophenyl)pyridin-2-yl)vinyl)-3,5-dimethyl-1,1-dioxidohexahydrobenzo[d]isothiazol-2(3H)-yl)ethanone]
13 | 383 nM | C[C@@H]1[C@H]2[C@@H](/C=C/c3ccc(-c4cccc(F)c4)cn3)[C@H](C)C(F)(F)C[C@H]2S(=O)(=O)N1C(=O)OC(C)(C)C [Example 14, (3R,3aR,4S,5S,7aR)-tert-butyl 6,6-difluoro-4-((E)-2-(5-(3-fluorophenyl)pyridin-2-yl)vinyl)-3,5-dimethylhexahydrobenzo[d]isothiazole-2(3H)-carboxylate 1,1-dioxide]
14 | 286 nM | CC[C@@H]1CC[C@@H]2[C@H]([C@H]1/C=C/c1ccc(-c3ccccc3C#N)cn1)[C@@H](C)N(C(=O)OC(C)(C)C)S2(=O)=O [Example 11, (3R,3aR,4R,5R,7aR)-tert-butyl 4-((E)-2-(5-(2-cyanophenyl)pyridin-2-yl)vinyl)-5-ethyl-3-methylhexahydrobenzo[d]isothiazole-2(3H)-carboxylate1,1-dioxide]
15 | 278 nM | COc1ncccc1-c1ccc(/C=C/[C@@H]2[C@@H]3[C@@H](C)N(C(=O)OC(C)(C)C)S(=O)(=O)[C@@H]3CC(F)(F)[C@H]2C)nc1 [Example 13, (3R,3aR,4S,5S,7aR)-tert-butyl 6,6-difluoro-4-((E)-2-(2′-methoxy-[3,3′-bipyridin]-6-yl)vinyl)-3,5-dimethylhexahydrobenzo[d]isothiazole-2(3H)-carboxylate 1,1-dioxide]
16 | 178 nM | C[C@@H]1[C@H](/C=C/c2ccc(-c3ccccc3C#N)cn2)[C@H]2[C@@H](CC1(F)F)S(=O)(=O)N[C@@H]2C [Example 8, (3R,3aR,4S,5R,7aR)-4-((E)-2-(5-(2-cyanophenyl)pyridin-2-yl)vinyl)-6,6-difluoro-3,5-dimethyloctahydrobenzo[d]isothiazole-1,1-dioxide]
17 | 41 nM | Cc1nc(/C=C/[C@@H]2[C@H]3[C@@H](CC(F)(F)[C@H]2C)S(=O)(=O)N[C@@H]3C)ccc1-c1cccnc1C#N [Example 7]
18 | 36.8 nM | COc1ncccc1-c1ccc(/C=C/[C@@H]2[C@@H]3[C@@H](C)NS(=O)(=O)[C@]3(CC(N)=O)CC(F)(F)[C@H]2C)nc1 [Example 18, 2-((3R,3aR,4S,5S,7aR)-6,6-difluoro-4-((E)-2-(2′-methoxy-[3,3′-bipyridin]-6-yl)vinyl)-3,5-dimethyl-1,1-dioxidooctahydrobenzo[d]isothiazol-7a-yl)acetamide]
19 | 19 nM | C[C@H]1NS(=O)(=O)[C@@H]2CC(F)(F)[C@@H](C)[C@H](/C=C/c3ccc(-c4cccc(F)c4)cn3)[C@@H]21 [Example 5, (3R,3aR,4S,5S,7aR)-6,6-difluoro-4-((E)-2-(5-(3-fluorophenyl)pyridin-2-yl)vinyl)-3,5-dimethyloctahydrobenzo[d]isothiazole 1,1-dioxide]
20 | 12 nM | C[C@H]1NS(=O)(=O)[C@]2(C)CC(F)(F)[C@@H](C)[C@H](/C=C/c3ccc(-c4cccnc4C#N)cn3)[C@H]12 [Example 17, (3R,3aR,4S,5S,7aR)-6,6-difluoro-4-((E)-2-(2′-cyano-[3,3′-bipyridin]-6-yl)vinyl)-3,5,7a-trimethyloctahydrobenzo[d]isothiazole 1,1-dioxide]
21 | 5.1 nM | COc1ncccc1-c1ccc(/C=C/[C@@H]2[C@H]3[C@@H](CC(F)(F)[C@H]2C)S(=O)(=O)N[C@@H]3C)nc1 [Example 1, (3R,3aR,4S,5S,7aR)-6,6-difluoro-4-((E)-2-(2′-methoxy-[3,3′-bipyridin]-6-yl)vinyl)-3,5-dimethyloctahydrobenzo[d]isothiazole 1,1-dioxide]
22 | 4.2 nM | COc1ncccc1-c1ccc(/C=C/[C@@H]2[C@@H]3[C@@H](C)NS(=O)(=O)[C@]3(C)CC(F)(F)[C@H]2C)nc1 [Example 12, (3R,3aR,4S,5S,7aR)-6,6-difluoro-4-((E)-2-(2′-methoxy-[3,3′-bipyridin]-6-yl)vinyl)-3,5,7a-trimethyloctahydrobenzo[d]isothiazole 1,1-dioxide]

From US20170240539A1, “Preparation and Use of Cyclic Sulfonamide Derivatives as PAR-1 Receptor Antagonists” (MERCK SHARP & DOHME CORP., priority 2014, published 2017)
